Where two headings read alike, the source gives them in different places.
Assays:
[1] = test system: platelet aggregation; assay: Platelet aggregation-inhibiting action in rabbit platelet-rich plasma (aggregometer); type: cell-based; details: Oryctolagus cuniculus, 0.05 h, rabbit PRP, 37°C, 3 min incubation
Protocol: Blood was drawn from the carotid artery of a rabbit using a syringe containing 1/10 volume of a 3.8% solution of sodium citrate. The blood was centrifuged to obtain platelet-rich plasma (PRP: 5 x 10^5 cells/µl).
In a cuvette were placed 200 µl of said PRP and 25 µl of a physiological saline solution. The cuvette was set on an aggregometer and warmed at 37°C for 2 min. Into the cuvette was then added 1.25 µl of an ethanol solution of a pyrazine derivative to be tested. After incubated for 3 min., a solution of a platelet-aggregation inducer, arachidonic acid or collagen, was added thereto. Measurements were made for platelet aggregation using an aggregometer (Hematracer IV; Niko Biosciences K.K.). […] Acetylsalicylic acid was used as a comparison.
The 50% inhibitory concentration as shown in the table means the concentration of the solution of a pyrazine derivative required for inhibiting the aggregation of platelets by introducing said pyrazine derivative when the platelet aggregatiqn in the absence of any pyrazine derivative of the invention is taken as 100%.

[2] = molecular target: T1, cyclooxygenase (Oryctolagus cuniculus, UniProt O97554); assay: Cyclooxygenase-inhibiting activity, washed platelets as enzyme source, 14C-arachidonic acid, TLC radiochromatogram; type: biochemical; details: washed rabbit platelets, 37°C for 3 min; sum of radioactivities of prostaglandin E2, prostaglandin D2 and HHT; read-out: 50% inhibitory concentration (mole)
T1 construct: The washed platelets thus produced were used as an enzyme source for cyclooxygenase; from tissue; host or cells: washed platelets from rabbit carotid artery blood
T1 sequence (O97554 31-606): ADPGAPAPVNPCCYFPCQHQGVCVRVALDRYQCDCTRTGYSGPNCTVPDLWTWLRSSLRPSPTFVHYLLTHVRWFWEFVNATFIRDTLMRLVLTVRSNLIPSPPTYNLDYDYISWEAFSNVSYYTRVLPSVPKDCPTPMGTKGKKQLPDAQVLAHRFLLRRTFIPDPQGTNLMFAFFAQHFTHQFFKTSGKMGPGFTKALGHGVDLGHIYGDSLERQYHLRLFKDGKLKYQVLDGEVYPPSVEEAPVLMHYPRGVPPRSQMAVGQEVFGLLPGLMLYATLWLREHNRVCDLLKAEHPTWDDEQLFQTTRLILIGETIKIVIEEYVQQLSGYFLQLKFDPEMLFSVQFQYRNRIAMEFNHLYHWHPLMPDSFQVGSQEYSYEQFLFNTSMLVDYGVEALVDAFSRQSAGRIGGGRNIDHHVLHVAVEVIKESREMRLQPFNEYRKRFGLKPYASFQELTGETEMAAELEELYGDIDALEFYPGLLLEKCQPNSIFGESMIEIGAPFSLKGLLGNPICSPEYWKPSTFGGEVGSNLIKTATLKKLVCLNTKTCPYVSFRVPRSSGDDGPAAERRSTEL
Protocol: In a centrifuge tube was collected 9 volumes of blood from the carotid artery of a rabbit per volume of a 3.8% solution of sodium citric acid contained therein using a canula. Platelet-rich plasma was obtained by centrifugation. To the platelet-rich plasma was added a 77 mM solution of EDTA in a volume of 1/10 per volume of said plasma. After mixing thoroughly, the mixture was subjected to centrifugation at 2500 r.p.m. at room temperature for 10 min. The supernatant was discarded, and the platelets were suspended in approximately 3 ml of a wash (134 mM of sodium chloride, 15 mM of trisaminomethane, 1 mM of EDTA and 5 mM of D-glucose dissolved in distilled water with a pH adjusted to 7.4 with 1N-hydrogen chloride), and the suspension was centrifuged at 2000 rpm at room temperature for 10 min. The supernatant was discarded, and the precipitated platelets were suspended in a 1/15 M phosphate buffer solution at pH 8.0 to adjust the number of the platelets to 6-8 x 10^5 cells/µl.
The washed platelets thus produced were used as an enzyme source for cyclooxygenase. […]
Development was made with a developing solvent (chloroform/methanol/acetic acid/water = 90:8:1:0.8) by approximately 18 cm, and then the inhibiting activity was determined by measuring sum of the radioactivities of prostaglandin E2' prostaglandin D2 and HHT by a radiochromatogram scanner.

[3] = aggregation caused by arachidonic acid (80 µM), read-out: 50% aggregation-inhibitory concentration (mole) Arachidonic acid
[4] = aggregation caused by collagen (15 µg/ml), read-out: 50% aggregation-inhibitory concentration (mole) Collagen

| Compound | IC50 [1, 3] [nM] | IC50 [1, 4] [nM] | IC50 [2] [nM] |
| --- | --- | --- | --- |
| CCc1nc(CC)c(-c2ccccc2)nc1-c1ccccc1 [Example 1, 2,6-diethyl-3,5-diphenylpyrazine] | 1700 | 390 |  |
| CCc1ncc(-c2ccccc2)nc1-c1ccccc1 [Example 2, 2-ethyl-3,5-diphenylpyrazine] | 6000 | 19000 |  |
| COc1ccc(-c2nc3c(nc2-c2ccc(OC)cc2)CCCC3)cc1 [Example 3, 2,3-bis(p-methoxyphenyl)-5,6,7,8-tetrahydroquinoxaline] | 15 | 24 |  |
| COc1ccc(-c2nc3ccccc3nc2-c2ccc(OC)cc2)cc1 [Example 4, 2,3-bis(p-methoxyphenyl)quinoxaline] | 38 | 9.8 |  |
| Clc1ccccc1Cc1cnc(-c2ccccc2)c(-c2ccccc2)n1 [Example 5, 2,3-diphenyl-5-(o-chlorobenzyl)pyrazine] | 4400 | 36000 |  |
| Clc1cccc(Cc2cnc(-c3ccccc3)c(-c3ccccc3)n2)c1 [Example 6, 2,3-diphenyl-5-(m-chlorobenzyl)pyrazine] | 4500 | 44000 |  |
| Clc1ccc(Cc2cnc(-c3ccccc3)c(-c3ccccc3)n2)cc1 [Example 7, 2,3-diphenyl-5-(p-chlorobenzyl)pyrazine] | 82000 | 34000 |  |
| Brc1ccc(Cc2cnc(-c3ccccc3)c(-c3ccccc3)n2)cc1 [Example 8, 2,3-diphenyl-5-(p-bromobenzyl)pyrazine] | 16000 | 100000 |  |
| CN(C)c1ccc(Cc2cnc(-c3ccccc3)c(-c3ccccc3)n2)cc1 [Example 9, 2,3-diphenyl-5-(p-dimethylaminobenzyl)pyrazine] | 84000 | 74000 |  |
| c1ccc(-c2ncc(Cc3cccc4ccccc34)nc2-c2ccccc2)cc1 [Example 10, 2,3-diphenyl-5-(l-naphthyl)methylpyrazine] | 43000 | 31000 |  |
| COc1ccc(-c2nc(Cl)c(Cl)nc2-c2ccc(OC)cc2)cc1 [Example 11, 2,3-bis(p-methoxyphenyl)-5,6-dichloropyrazine] | 14 | 220 |  |
| COc1ccc(-c2ncc(Cl)nc2-c2ccc(OC)cc2)cc1 [Example 12, 2,3-bis(p-methoxyphenyl)-5-chloropyrazine] | 3.8 | 9.8 |  |
| COc1ccc(-c2ncc(C#N)nc2-c2ccc(OC)cc2)cc1 [Example 13, 2,3-bis(p-methoxyphenyl)-5-cyanopyrazine] | 24 | 15 | 5000 |
| COc1ccc(-c2ncc(C(=O)O)nc2-c2ccc(OC)cc2)cc1 [Example 14, 2,3-bis(p-methoxyphenyl)-pyrazine-5-carboxylic acid] | 260 | 5000 |  |
| COC(=O)c1cnc(-c2ccc(OC)cc2)c(-c2ccc(OC)cc2)n1 [Example 15] | 3 | 130 |  |
| Cc1cnc(-c2ccc(C#N)cc2)c(-c2ccc(C#N)cc2)n1 [X=-CN, R2=H, R3=-CH3] | 1000 | 1000 |  |
